# From patent US20250290117A1, “MOLECULAR PHENOTYPIC ANTIMICROBIAL SUSCEPTIBILITY TESTING” (priority 2024, published 2025)
# Key:
# E. coli = test: Molecular phenotypic antimicrobial susceptibility test, specimen with two detected pathogens incubated together without isolation; format: cell-based, Escherichia coli; settings: E. coli in specimen with two detected pathogens (E. coli and M. morganii) incubated together; for Ct of Sensitive Breakpoint: Ct of controls (average) 15.93; for Molecular Antimicrobial Susceptibility Result: at sensitive breakpoint
# Procedure: (§1) Detection of Molecular Phenotypic Antimicrobial Susceptibility. Disclosed herein are the methods for the detection of phenotypic antimicrobial susceptibility via molecular methods. The present invention describes how a specimen 100 with a known microbial load is incubated and then exposed to a panel of antimicrobial agents to determine sensitivity (prevention of growth) or resistance (allowance of growth) to the specific antimicrobial agents tested utilizing molecular methods.
# Sample Collection. Specimens 100 are collected from patients using sterile collection processes that are employed in routine clinical care. Specimens are transported to the testing facility in boric acid preservative. Specimens 100 are subsequently divided into a first sample 104 and a second sample 108.
# Preparation of the Specimens for Testing. The specimens 100 are put through a pathogen identification process using PCR technology (e.g., using the first sample 104). The process for pathogen isolation includes steps of harvesting the pathogen (e.g., via centrifugation), isolating pathogen DNA via a DNA isolation and/or purification kit, and performing PCR on the pathogen DNA via PCR components (e.g., primers, enzymes, buffers) as would be known to the skilled artisan. Simultaneously, an additional aliquot of the same specimen (e.g., the second sample 108) is placed with liquid culture media and incubated for 4-6 hours. This aliquot is used for antimicrobial susceptibility testing if indicated based on the pathogen detection results. After pathogen identification is completed and if more than 10,000 cells/mL of bacteria (e.g., eligible bacteria) are detected in the source specimen, the second sample 108 then enters the antimicrobial susceptibility phase of testing. Specimens 100 with lower pathogen loads could also be utilized in the antibiotic susceptibility phase of testing with or without a longer incubation period.
# (§2) Preparation of Antimicrobial Susceptibility Testing Plates. Antimicrobial solutions are prepared at known concentrations. The specific antimicrobials and their concentrations are selected based on the pathogen of interest and the described antimicrobial resistance breakpoints for that specimen pathogen and antimicrobial combination. These antimicrobials have been selected based on those commonly utilized by healthcare providers in routine clinical care for the specific type of suspected infection. The number and types of antimicrobials utilized can be customized based on the infection source, pathogen detected, patient-specific factors such as allergies or other health conditions (e.g., chronic kidney disease or concurrent medication use), or healthcare provider preferences such as antimicrobial availability or cost.
# The antimicrobial solutions are prepared in liquid culture media (such as Muller Hinton Broth) to achieve the desired antimicrobial concentration and are then stored at −80° C. until use. For a given specimen, each antimicrobial is tested at a single or multiple antimicrobial concentration(s) which is its established breakpoints for sensitivity. The antimicrobial solutions are prepared and plated out for each specific pathogen. This allows ease of use on the day of testing after defrosting the plate 112. Table 1, which illustrates the results of molecular phenotypic antimicrobial susceptibility testing when more than one organism is present in the source specimen, provides an example of an antimicrobial plate 112 prepared for this purpose. Of note, control wells containing only culture media are present on all plates 112. This allows for evaluation of pathogen load when no antimicrobial is present.
# Specimen Exposure to Antimicrobial Agents. The 1 mL aliquot of the specimen 100 previously mixed with culture media and incubated is obtained. Using optical density measurements as a guide, the specimen 100 is diluted to 0.5 McFarland. […]
# [1] = system: pathogens of clinical samples; test: Molecular phenotypic antimicrobial susceptibility test of clinical samples, direct PCR without a separate DNA purification step (Table 6); format: cell-based
# Procedure: as §1
# (§3) Sample Collection. Specimens 100 are collected from patients using sterile collection processes that are employed in routine clinical care. Specimens are transported to the testing facility in boric acid preservative.
# (§4) Preparation of the Specimens for Testing. […] The process for pathogen isolation includes steps of harvesting the pathogen (e.g., via centrifugation), isolating pathogen DNA via a DNA isolation and/or purification kit, and performing PCR on the pathogen DNA via PCR components (e.g., primers, enzymes, buffers) as would be known to the skilled artisan. […] This aliquot is used for antimicrobial susceptibility testing if indicated based on the pathogen detection results. […] Specimens 100 with lower pathogen loads could also be utilized in the antibiotic susceptibility phase of testing with or without a longer incubation period.
# as §2
# (§5) The antimicrobial solutions are prepared in liquid culture media (such as Muller Hinton Broth) to achieve the desired antimicrobial concentration and are then stored at −80° C. until use. For a given specimen, each antimicrobial is tested at a single or multiple antimicrobial concentration(s) which is its established breakpoints for sensitivity. The antimicrobial solutions are prepared and plated out for each specific pathogen. […] This allows for evaluation of pathogen load when no antimicrobial is present.
# (§6) Specimen Exposure to Antimicrobial Agents. The 1 mL aliquot of the specimen 100 previously mixed with culture media and incubated is obtained. Using optical density measurements as a guide, the specimen 100 is diluted to 0.5 McFarland.
# (§7) Antimicrobial exposure plates are typically placed into an incubator for 12-16 hours.
# (§8) Nucleic Acid Amplification of Antimicrobial Agent Exposed Pathogens. The antimicrobial exposure plate is removed after the period of incubation. The specimen then undergoes a purification or lysis step. For example, the specimen may undergo a purification step (e.g., magnetic bead-based or other separation protocol to isolate genetic material). In another example, the specimen may undergo a cell lysis step. For example, buffer (e.g., lysis buffer) may be added and incubated in the thermal cycler for preparation for direct PCR. Next, the specimen may undergo a polymerase chain reaction (PCR) testing protocol, whereby a semi-quantitative PCR method is utilized. This may be completed either with or without a specific extraction protocol step. The pathogens can be individually targeted and detected, or a universal genetic sequence can be utilized to detect the antimicrobial susceptibility of the specimen as a whole.
# Escherichia coli = test: Molecular phenotypic antimicrobial susceptibility test (extraction or DNA purification prior to PCR); format: cell-based
# Procedure: as §1, §3, §4, §2, §5, §6, §7, §8
# [2] = E. coli, clinical sample of r10-r24
# [3] = E. coli, clinical sample of r10-r24, Ct control avg 12.97
# [4] = E. coli, clinical sample of r158-r172
# [5] = E. coli, clinical sample of r158-r172, Ct control avg 12.894
# [6] = K. aerogenes, clinical sample of r136-r150
# [7] = K. aerogenes, clinical sample of r136-r150, Ct control avg 13.854
# [8] = K. pneumoniae, clinical sample of r121-r135
# [9] = K. pneumoniae, clinical sample of r121-r135, Ct control avg […]
# [10] = M. morganii, clinical sample of r55-r69
# [11] = M. morganii, clinical sample of r55-r69, Ct control avg 12.09
# [12] = M. morganii, clinical sample of r70-r84
# [13] = M. morganii, clinical sample of r70-r84, Ct control avg 11.677
# [14] = P. mirabilis, clinical sample of r25-r39
# [15] = P. mirabilis, clinical sample of r25-r39, Ct control avg 11.801
# [16] = P. mirabilis, clinical sample of r40-r54
# [17] = P. mirabilis, clinical sample of r40-r54, Ct control avg 10.06
# [18] = S. aureus, clinical sample of r85-r92
# [19] = S. aureus, clinical sample of r85-r92, Ct control avg 20.309
# [20] = E. faecalis, clinical sample of r93-r99
# [21] = E. faecalis, clinical sample of r93-r99, Ct control avg 22.011
# [22] = E. faecalis, clinical sample of r100-r106
# [23] = E. faecalis, clinical sample of r100-r106, Ct control avg 21.027
# [24] = E. faecalis, clinical sample of r107-r113, Ct control avg 20.529
# [25] = E. faecalis, clinical sample of r114-r120
# [26] = E. faecalis, clinical sample of r151-r157, Ct control avg 18.551
smiles,measurement,setting,value
CO[C@@]1(NC(=O)Cc2cccs2)C(=O)N2C(C(=O)O)=C(COC(N)=O)CS[C@@H]21 [Cefoxitin],Ct of Sensitive Breakpoint,E. coli,18.30
same,Molecular Antimicrobial Susceptibility Result,E. coli,Sensitive (Antimicrobial wells with pathogen load detected below the control wells (typically >2 cycle thresholds later) may be reported as Sensitive)
same,Molecular Antibiotic Susceptibility Result,[1]; [2],Sensitive (Antimicrobial wells with pathogen load detected below the control wells (typically >2 cycle thresholds later) may be reported as Sensitive)
same,Ct,[1]; [3],25.006
same,Molecular Antibiotic Susceptibility Result,[1]; [4],Sensitive (Antimicrobial wells with pathogen load detected below the control wells (typically >2 cycle thresholds later) may be reported as Sensitive)
same,Ct,[1]; [5],29.986
same,Molecular Antibiotic Susceptibility Result,[1]; [6],Resistant
same,Ct,[1]; [7],13.468
same,Molecular Antibiotic Susceptibility Result,[1]; [8],Sensitive (Antimicrobial wells with pathogen load detected below the control wells (typically >2 cycle thresholds later) may be reported as Sensitive)
same,Ct,[1]; [9],27.384
same,Molecular Antibiotic Susceptibility Result,[1]; [10],Sensitive (Antimicrobial wells with pathogen load detected below the control wells (typically >2 cycle thresholds later) may be reported as Sensitive)
same,Ct,[1]; [11],29.041
same,Molecular Antibiotic Susceptibility Result,[1]; [12],Sensitive (Antimicrobial wells with pathogen load detected below the control wells (typically >2 cycle thresholds later) may be reported as Sensitive)
same,Ct,[1]; [13],29.107
same,Molecular Antibiotic Susceptibility Result,[1]; [14],Sensitive (Antimicrobial wells with pathogen load detected below the control wells (typically >2 cycle thresholds later) may be reported as Sensitive)
same,Ct,[1]; [15],27.055
same,Molecular Antibiotic Susceptibility Result,[1]; [16],Sensitive (Antimicrobial wells with pathogen load detected below the control wells (typically >2 cycle thresholds later) may be reported as Sensitive)
same,Ct,[1]; [17],26.904
same,Molecular Antibiotic Susceptibility Result,[1]; [18],Resistant
same,Ct,[1]; [19],20.586
same,Ct at Sensitive Breakpoint,"Escherichia coli; E. coli isolate 4, Ct at control (average) 17.5733",24.09
same,Molecular Antimicrobial Susceptibility Result,"Escherichia coli; E. coli isolate 4, at sensitive breakpoint",Sensitive (Antimicrobial wells with pathogen load detected below the control wells (typically >2 cycle thresholds later) may be reported as Sensitive)
same,Ct at Sensitive Breakpoint,"Escherichia coli; E. coli isolate 5, Ct at control (average) 21.0933",24.72
same,Molecular Antimicrobial Susceptibility Result,"Escherichia coli; E. coli isolate 5, at sensitive breakpoint",Sensitive (Antimicrobial wells with pathogen load detected below the control wells (typically >2 cycle thresholds later) may be reported as Sensitive)
CN[C@H](CC(C)C)C(=O)N[C@H]1C(=O)N[C@@H](CC(N)=O)C(=O)N[C@H]2C(=O)N[C@H]3C(=O)N[C@H](C(=O)N[C@H](C(=O)O)c4cc(O)cc(O)c4-c4cc3ccc4O)[C@H](O)c3ccc(c(Cl)c3)Oc3cc2cc(c3O[C@@H]2O[C@H](CO)[C@@H](O)[C@H](O)[C@H]2O[C@H]2C[C@](C)(N)[C@H](O)[C@H](C)O2)Oc2ccc(cc2Cl)[C@H]1O [Vancomycin],Molecular Antibiotic Susceptibility Result,[1]; [20],Sensitive (Antimicrobial wells with pathogen load detected below the control wells (typically >2 cycle thresholds later) may be reported as Sensitive)
same,Ct,[1]; [21],30.062
same,Molecular Antibiotic Susceptibility Result,[1]; [22],sensitive
same,Ct,[1]; [23],35.563
same,Molecular Antibiotic Susceptibility Result,"[1]; E. faecalis, clinical sample of r107-r113",sensitive
same,Ct,[1]; [24],29.81
same,Molecular Antibiotic Susceptibility Result,[1]; [25],Sensitive (Antimicrobial wells with pathogen load detected below the control wells (typically >2 cycle thresholds later) may be reported as Sensitive)
same,Molecular Antibiotic Susceptibility Result,"[1]; E. faecalis, clinical sample of r151-r157",Sensitive (Antimicrobial wells with pathogen load detected below the control wells (typically >2 cycle thresholds later) may be reported as Sensitive)
same,Ct,[1]; [26],35.428
same,Molecular Antibiotic Susceptibility Result,[1]; [18],Resistant
same,Ct,[1]; [19],21.258
CN(C)[C@@H]1C(O)=C(C(N)=O)C(=O)[C@@]2(O)C(O)=C3C(=O)c4c(O)cccc4[C@@](C)(O)[C@H]3C[C@@H]12 [Tetracycline],Ct of Sensitive Breakpoint,E. coli,14.55
same,Molecular Antimicrobial Susceptibility Result,E. coli,Resistant
same,Molecular Antibiotic Susceptibility Result,[1]; [2],Sensitive (Antimicrobial wells with pathogen load detected below the control wells (typically >2 cycle thresholds later) may be reported as Sensitive)
same,Ct,[1]; [3],26.521
same,Molecular Antibiotic Susceptibility Result,[1]; [4],Sensitive (Antimicrobial wells with pathogen load detected below the control wells (typically >2 cycle thresholds later) may be reported as Sensitive)
same,Ct,[1]; [5],30.717
same,Molecular Antibiotic Susceptibility Result,[1]; [20],Resistant
same,Ct,[1]; [21],21.199
same,Molecular Antibiotic Susceptibility Result,[1]; [22],Resistant
same,Ct,[1]; [23],20.684
same,Ct,[1]; [24],28.789
same,Molecular Antibiotic Susceptibility Result,[1]; [25],Resistant
same,Ct,"[1]; E. faecalis, clinical sample of r114-r120, Ct control avg 20.909",21.446
same,Ct,[1]; [26],21.132
same,Molecular Antibiotic Susceptibility Result,[1]; [6],Sensitive (Antimicrobial wells with pathogen load detected below the control wells (typically >2 cycle thresholds later) may be reported as Sensitive)
same,Ct,[1]; [7],30.787
same,Molecular Antibiotic Susceptibility Result,[1]; [8],Sensitive (Antimicrobial wells with pathogen load detected below the control wells (typically >2 cycle thresholds later) may be reported as Sensitive)
same,Ct,[1]; [9],27.163
same,Molecular Antibiotic Susceptibility Result,[1]; [10],Resistant
same,Ct,[1]; [11],9.923
same,Molecular Antibiotic Susceptibility Result,[1]; [12],Resistant
same,Ct,[1]; [13],12.206
same,Molecular Antibiotic Susceptibility Result,[1]; [14],Resistant
same,Ct,[1]; [15],10.301
same,Molecular Antibiotic Susceptibility Result,[1]; [16],Resistant
same,Ct,[1]; [17],11.498
same,Molecular Antibiotic Susceptibility Result,[1]; [18],Resistant
same,Ct,[1]; [19],22.653
